In patent US6673549B1, “Genes expressed in C3A liver cell cultures treated with steroids” (Incyte Corporation, priority 2000, dated 2004):
“And” between values parts separate entries of the source, which are not always exact repeats. Identical values can stand only once.

Tested on: human C3A liver cells
Test: Microarray differential gene expression in human C3A liver cell cultures treated with steroids
Assay type: cell-based
From the text: Incyte clones represent template sequences derived from the LWESEQ GOLD assembled human sequence database (Incyte Genomics). In cases where more than one clone was available for a particular template, the 5′-most clone in the template was used on the microarray. The HUMAN GENOME GEM series 1-4 microarrays (Incyte Genomics) contain 28,626 array elements which represent 10,068 annotated clusters and 18,558 unannotated clusters. For the UNIGEM series microarrays (Incyte Genomics), Incyte clones were mapped to non-redundant Unigene clusters (Unigene database (build 46), NCBI; Shuler (1997) J Mol Med 75:694-698), and the 5′ clone with the strongest BLAST alignment (at least 90% identity and 100 bp overlap) was chosen, verified, and used in the construction of the microarray. The UNIGEM V microarray (Incyte Genomics) contains 7075 array elements which represent 4610 annotated genes and 2,184 unannotated clusters.
To construct microarrays, cDNAs were amplified from bacterial cells using primers complementary to vector sequences flanking the cDNA insert. […] Amplified cDNAs were then purified using […]-400 columns (APB). Purified cDNAs were immobilized on polymer-coated glass slides. Glass microscope slides (Corning, Corning N.Y.) were cleaned by ultrasound in 0.1% SDS and acetone, with extensive distilled water washes between and after treatments. Glass slides were etched in 4% hydrofluoric acid (VWR Scientific Products, West Chester Pa.), washed thoroughly in distilled water, and coated with 0.05% aminopropyl silane (Sigma Aldrich) in 95% ethanol. Coated slides were cured in a 110° C. oven. cDNAs were applied to the coated glass substrate using a procedure described in U.S. Pat. No. 5,807,522. One microliter of the cDNA at an average concentration of 100 ng/μl was loaded into the open capillary printing element by a high-speed robotic apparatus which then deposited about 5 nl of cDNA per slide.
Microarrays were UV-crosslinked using a […] UV-crosslinker (Stratagene), and then washed at room temperature once in 0.2% SDS and three times in distilled water. Non-specific binding sites were blocked by incubation of microarrays in 0.2% casein in phosphate buffered saline (Tropix, Bedford Mich.) for 30 minutes at 60° C. followed by washes in 0.2% SDS and distilled water as before.
In all cases, mRNA from untreated early confluent C3A cells were prepared in parallel as described below.
Cells were harvested and lysed in 1 ml of TRIZOL reagent (5×10^6 cells/ml; Life Technologies). Lysates were vortexed thoroughly, incubated at room temperature for 2-3 minutes, and extracted with 0.5 ml chloroform. The extract was mixed, incubated at room temperature for 5 minutes, and centrifuged at 15,000 rpm for 15 minutes at 4° C. The aqueous layer was collected, and an equal volume of isopropanol was added. Samples were mixed, incubated at room temperature for 10 minutes, and centrifuged at 15,000 rpm for 20 minutes at 4° C. The supernatant was removed, and the RNA pellet was washed with 1 ml of 70% ethanol, centrifuged at 15,000 rpm at 4° C., and resuspended in RNAse-free water. The concentration of the RNA was determined by measuring the optical density at 260 nm.
Poly(A) RNA was prepared using an OLIGOTEX mRNA kit (Qiagen) with the following modifications: OLIGOTEX beads were washed in tubes instead of on spin columns, resuspended in elution buffer, and then loaded onto spin columns to recover mRNA. To obtain maximum yield, the mRNA was eluted twice.
Each poly(A) RNA sample was reverse transcribed using MMLV reverse-transcriptase, 0.05 pg/μl oligo-d(T) primer (21mer), 1× first strand buffer, 0.03 units/ul RNAse inhibitor, 500 uM dATP, 500 uM dGTP, 500 uM dTTP, 40 uM dCTP, and 40 uM either dCTP-Cy3 or dCTP-Cy5 (APB).

CCCC1O[C@@H]2C[C@H]3[C@@H]4CCC5=CC(=O)C=C[C@]5(C)[C@H]4[C@@H](O)C[C@]3(C)[C@]2(C(=O)CO)O1 (stereo partly drawn) [budesonide]
Ave DE [log2] (C3A treated with steroid) (Clone ID 380006): −1.05 log2
Ave DE [log2] (C3A treated with steroid) (Clone ID 517374): 1.04 log2
Ave DE [log2] (C3A treated with steroid) (Clone ID 615776): 1.06 log2
Ave DE [log2] (C3A treated with steroid) (Clone ID 622565): 1.20 log2
Ave DE [log2] (C3A treated with steroid) (Clone ID 654246): −1.08 log2
Ave DE [log2] (C3A treated with steroid) (Clone ID 686993): 0.51 log2
Ave DE [log2] (C3A treated with steroid) (Clone ID 689296): 1.08 log2 and 1.05 log2
Ave DE [log2] (C3A treated with steroid) (Clone ID 1401312): −1.09 log2
Ave DE [log2] (C3A treated with steroid) (Clone ID 1604437): 1.18 log2
Ave DE [log2] (C3A treated with steroid) (Clone ID 1611629): 1.19 log2
Ave DE [log2] (C3A treated with steroid) (Clone ID 1662870): −0.93 log2
Ave DE [log2] (C3A treated with steroid) (Clone ID 1679595): 1.10 log2
Ave DE [log2] (C3A treated with steroid) (Clone ID 1697719): −0.81 log2
Ave DE [log2] (C3A treated with steroid) (Clone ID 1716458): 1.24 log2
Ave DE [log2] (C3A treated with steroid) (Clone ID 1798594): 0.69 log2
Ave DE [log2] (C3A treated with steroid) (Clone ID 1823946): −1.10 log2
Ave DE [log2] (C3A treated with steroid) (Clone ID 1876829): −1.13 log2
Ave DE [log2] (C3A treated with steroid) (Clone ID 1930847): −1.09 log2
Ave DE [log2] (C3A treated with steroid) (Clone ID 1973123): −1.23 log2
Ave DE [log2] (C3A treated with steroid) (Clone ID 2057513): 1.13 log2
Ave DE [log2] (C3A treated with steroid) (Clone ID 2078880): −0.80 log2
Ave DE [log2] (C3A treated with steroid) (Clone ID 2170820): 1.17 log2
Ave DE [log2] (C3A treated with steroid) (Clone ID 2173973): 1.08 log2
Ave DE [log2] (C3A treated with steroid) (Clone ID 2189061): 0.15 log2
Ave DE [log2] (C3A treated with steroid) (Clone ID 2222155): 0.58 log2
Ave DE [log2] (C3A treated with steroid) (Clone ID 2227273): 1.05 log2
Ave DE [log2] (C3A treated with steroid) (Clone ID 2287724): −1.06 log2
Ave DE [log2] (C3A treated with steroid) (Clone ID 2343836): 0.93 log2
Ave DE [log2] (C3A treated with steroid) (Clone ID 2404746): 0.42 log2
Ave DE [log2] (C3A treated with steroid) (Clone ID 2482388): 1.19 log2
Ave DE [log2] (C3A treated with steroid) (Clone ID 2660756): 1.13 log2
Ave DE [log2] (C3A treated with steroid) (Clone ID 2687356): 1.26 log2
Ave DE [log2] (C3A treated with steroid) (Clone ID 2703282): −1.01 log2
Ave DE [log2] (C3A treated with steroid) (Clone ID 3139631): −0.97 log2
Ave DE [log2] (C3A treated with steroid) (Clone ID 3229449): 0.39 log2
Ave DE [log2] (C3A treated with steroid) (Clone ID 3408804): −1.24 log2
Ave DE [log2] (C3A treated with steroid) (Clone ID 3426776): 0.61 log2
Ave DE [log2] (C3A treated with steroid) (Clone ID 3449615): 1.05 log2
Ave DE [log2] (C3A treated with steroid) (Clone ID 3497137): −0.94 log2
Ave DE [log2] (C3A treated with steroid) (Clone ID 3687607): 1.17 log2
Ave DE [log2] (C3A treated with steroid) (Clone ID 3721985): −1.10 log2
Ave DE [log2] (C3A treated with steroid) (Clone ID 3770530): −0.98 log2
Ave DE [log2] (C3A treated with steroid) (Clone ID 3973687): 1.31 log2
Ave DE [log2] (C3A treated with steroid) (Clone ID 4089291): −1.00 log2
Ave DE [log2] (C3A treated with steroid) (Clone ID 4215034): 1.20 log2
Ave DE [log2] (C3A treated with steroid) (Clone ID 4252872): 1.24 log2
Ave DE [log2] (C3A treated with steroid) (Clone ID 4403805): 1.12 log2
Ave DE [log2] (C3A treated with steroid) (Clone ID 4630674): 0.97 log2
Ave DE [log2] (C3A treated with steroid) (Clone ID 4855265): 1.14 log2
Ave DE [log2] (C3A treated with steroid) (Clone ID 4863677): 1.11 log2
Ave DE [log2] (C3A treated with steroid) (Clone ID 5038177): 0.57 log2
Ave DE [log2] (C3A treated with steroid) (Clone ID 5102951): 0.84 log2
Ave DE [log2] (C3A treated with steroid) (Clone ID 5326983): 0.94 log2

C#C[C@]1(O)CC[C@H]2[C@@H]3CCC4=Cc5oncc5C[C@]4(C)[C@H]3CC[C@@]21C [danazol]
Ave DE [log2] (C3A treated with steroid) (Clone ID 1500810): −0.41 log2
Ave DE [log2] (C3A treated with steroid) (Clone ID 2607834): 0.92 log2
Ave DE [log2] (C3A treated with steroid) (Clone ID 5038177): 0.74 log2

C[C@@H]1C[C@H]2[C@@H]3CCC4=CC(=O)C=C[C@]4(C)[C@@]3(F)[C@@H](O)C[C@]2(C)[C@@]1(O)C(=O)CO [dexamethasane]
Ave DE [log2] (C3A treated with steroid) (Clone ID 2253102): −1.20 log2
